Data reported in patent US4677107A, “Anti-peptic ulcer agent” (Dainippon Pharmaceutical Co., Ltd., priority 1983, dated 1987).

Legend:
[1] = U.S. Pat. No. 4,237,135 and U.K. Pat. No. 2,017,698; cited from earlier work
[2] = Conversion after oral administration; assay type: in vivo; conditions: orally administered
[3] = U.S. Pat. No. 4,237,135 and U.K. Pat. No. 2,017,698; cited from earlier work; remark: listed apart in the source
[4] = tested on: brain noradrenaline turnover; conditions: U.S. Pat. No. 4,237,135 and U.K. Pat. No. 2,017,698; cited from earlier work
[5] = tested on: mouse-killing behavior of olfactory bulb-ablated rats; conditions: U.S. Pat. No. 4,237,135 and U.K. Pat. No. 2,017,698; cited from earlier work
[6] = U.S. Pat. No. 4,237,135 and U.K. Pat. No. 2,017,698; cited from earlier work; remark: listed apart in the source
[7] = Toxicological study, LD50 mouse; conditions: in vivo, po, Mouse (ICR strain)
Description: (§1) Further, the toxicological study was conducted according to the conventional method on Compound B. The results are shown in Table 5.

pupil size = test: Mydriatic action in rats; assay type: in vivo, male Wistar strain rats; conditions: for Percent mydriasis: one hour after administration, 3 mm dilation = 100 percent
Description: [IV] Mydriatic action in rats:
Male Wistar strain rats (weighing, 150-200 g) were used. Pupil size of the animals was twice measured microscopically just before and one hour after administration of drugs at a distance of 30 cm from the source of a constant light (30 W fluorescent light) according to the method of Pulewka [cf. Arch. exp. Path. U. Pharmakol., 168, 307 (1932)]. Based on the change between the first measured pupil size and the second measured pupil size, mydriasis percentage was calculated provided that mydriasis percentage is supposed to be 100 percent in case of 3 mm dilation of pupil size in diameter. Drugs to be tested were suspended in 0.5% tragacanth solution and administered. In the control group, a vehicle (0.5% tragacanth solution) was administered.

gastric secretion = test: Effect on gastric secretion in rats (pylorus ligation, total acid content); assay type: in vivo, male Wistar strain rats
Description: [III] Effect on gastric secretion in rats: Male Wistar strain rats (weighing, about 200 g) were fasted for 24 hours before experiment. The pylorus was ligated under ether anaesthesia. Four hours after the ligation, the stomach was removed under ether anaesthesia. The gastric content was collected and centrifuged, and the secretory volume, pH and acid content of the supernatant were measured. The acid content was measured by titrating to pH 7.0 with 0.02N NaOH using pH meter (Hitachi Horiba, M-5). The total acid content of the drug treated groups was compared with that of the control group, and thereby, the reduction percentage of acid content was calculated and then ED50, i.e. the dose required for 50% reduction of acid content, was determined by the usual graphic method. Drugs to be tested were suspended in 0.5% tragacanth solution and administered orally 30 minutes before the ligation. In the control group, a vehicle (0.5% tragacanth solution) was administered.

[8] = tested on: ulceration induced by exposure to stress (restraint and water immersion); test: Effect on the ulceration induced by exposure to stress (restraint and water immersion); assay type: in vivo, male Wistar strain rats; conditions: ulcer index = sum of length (mm) of lesions
Description: [I] Effect on the ulceration induced by exposure to stress (restraint and water immersion): Male Wistar strain rats (weighing, about 200 g) were placed in a stress cage which served to immobilize the animals therein and then immersed in a water bath of 23° C. to the height of xiphoid of the animals according to the method of Takagi et al. [cf. Takagi, K. and Okabe, S., Japan. J. Pharmacol., 18, 9 (1968)]. After 20 hours, the animals were sacrificed and the stomach was removed. The stomach was inflated with 13 ml of saline and placed in 5% formalin solution for 5 minutes. After washing with saline, the stomach was cut open along the greater curvature and the length (mm) of each lesion in the glandular portion was measured using a dissecting microscope (×12). The sum of the length (mm) of each lesions in a stomach was indicated as an ulcer index. In case of reference experiment using butylscopolamine bromide, a photograph of the mucosal surface of stomach was taken after the stomach was treated in the same manner as described above. The photograph was magnified by nine times, and the sum of the area (mm^2) of each lesions in a stomach was indicated as an ulcer index. The ulcer index in drug treated groups was compared with that in control group, and thereby, inhibitory percentage was calculated and then ED50 value, i.e., the dose required for 50% inhibition of the ulcer index, was determined by the usual graphic method. Drugs to be tested were suspended in 0.5% tragacanth solution and administered orally 30 minutes before the immersion. In the control group, a vehicle (0.5% tragacanth solution) was administered.

[9] = tested on: ulceration induced by pylorus-ligation; test: Effect on the ulceration induced by pylorus-ligation in rats; assay type: in vivo, male Wistar strain rats
Description: [II] Effect on the ulceration induced by pylorus-ligation in rats: Male Wistar strain rats (weighing about 190 g) were fasted for 48 hours before experiment. The pylorus of each rat was ligated under ether anaesthesia according to the method of Shay et al. [cf. Shay, H., et al., Gastroenterology, 5, 43-61 (1945)]. Each of the animals was then allowed to stand abstained from food and water in a cage. After 18 hours, the animals were sacrificed under ether anaesthesia, and the stomachs were removed and cut open along the greater curvature. […] 4: marked ulcers more than two 5: perforated ulcer The ulcer index in drug treated groups was compared to that in the control group, and thereby, the inhibitory percentage was calculated and then ED50, i.e. the dose required for 50% inhibition of ulcer index, was determined by the usual graphic method. Drugs to be tested were suspended in 0.5% tragacanth solution and administered 30 minutes before the ligation. In the control group, a vehicle (0.5% tragacanth solution) was administered.

[10] = Toxicological study, LD50 rat; conditions: in vivo, po, Rat (SD strain)
Description: as §1

In the case of `CCN1CCN(c2cc(-c3ccccc3)c3ccccc3n2)CC1` [2-(4-ethyl-1-piperazinyl)-4-phenylquinoline], the anti-reserpine activity [1] is listed as “showed anti-reserpine activity”, the “conversion on oral administration” value [2] is listed as “partially converted into 2-(1-piperazinyl)-4-phenylquinoline” and the anti-tremorine activity [3] is listed as “has also anti-tremorine activity”. For the same compound, the “inhibition of brain noradrenaline turnover” value [4] was “inhibition of brain noradrenaline turnover”, the “suppression of mouse-killing behavior of olfactory bulb-ablated rats” value [5] was “suppression of mouse-killing behavior of olfactory bulb-ablated rats” and the anti-tetrabenazine activity [6] was “anti-tetrabenazine activity”.
Work on `CCN1CCN(c2cc(-c3ccccc3)c3ccccc3n2)CC1.O=C(O)/C=C\C(=O)O.O=C(O)/C=C\C(=O)O` [Compound B, 2-(4-ethyl-1-piperazinyl)-4-phenylquinoline dimaleate] yielded an LD50 [7] of roughly 1200 mg/kg, a Percent mydriasis (pupil size; 5 mg/kg p.o.) of 0% and a Percent mydriasis (pupil size; 10 mg/kg p.o.) of 2.7%. The Percent mydriasis (pupil size; 20 mg/kg p.o.) was 4.7%, the Percent mydriasis (pupil size; 50 mg/kg p.o.) was 2.0% and the Percent mydriasis (pupil size; 100 mg/kg p.o.) was 2.7%. The “mydriatic action (in words)” value (pupil size; rats, up to 100 mg/kg) was “did entirely not show any mydriatic action even in a dose of 100 mg/kg”, the “Total acid content Reduction %” value (gastric secretion; 0.5 mg/kg p.o.) was 27.8% and the “Total acid content Reduction %” value (gastric secretion; 1 mg/kg p.o.) was 24.0%. For the same compound, the “Total acid content Reduction %” value (gastric secretion; 2 mg/kg p.o.) was 47.8%, the “Total acid content Reduction %” value (gastric secretion; 5 mg/kg p.o.) was 60.2% and the ED50 (gastric secretion; Rattus norvegicus, po, 30 minutes before ligation, rats, 4 hours after ligation, read-out: ED50 (dose required for 50% reduction of acid content)) was 2.8 mg/kg. For the same compound, the “Ulcer index Inhibitory %” value ([8]; 1 mg/kg p.o.) was 44.5%, the “Ulcer index Inhibitory %” value ([8]; 2 mg/kg p.o.) was 66.6% and the “Ulcer index Inhibitory %” value ([8]; 5 mg/kg p.o.) was 90.1%. The ED50 ([8]; Rattus norvegicus, po, 30 minutes before immersion, rats, read-out: ED50 (dose required for 50% inhibition of the ulcer index)) was 1.2 mg/kg, the “Ulcer index Inhibitory %” value ([9]; 5 mg/kg p.o.) was 0% and the “Ulcer index Inhibitory %” value ([9]; 10 mg/kg p.o.) was 28.6%. The “Ulcer index Inhibitory %” value ([9]; 20 mg/kg p.o.) was 57.1%, the “Ulcer index Inhibitory %” value ([9]; 50 mg/kg p.o.) was 78.6% and the ED50 ([9]; Rattus norvegicus, po, 30 minutes before ligation, rats, 18 hours, ulcer index 0 to 5, read-out: ED50 (dose required for 50% inhibition of ulcer index)) was 19 mg/kg. It also gave an LD50 [10] of roughly 3600 mg/kg.
